Experiment [1] is described as follows: In vitro ability to displace [125 I]CGRP from Calcitonin gene-related peptide type receptor at 4 degrees Celsius in rabbit porcine c+i.
The nature of experiment [2]: In vitro ability to displace [125 I]CGRP from Calcitonin gene-related peptide type receptor at 4 degrees Centigrade in rabbit lung.

Data on two compounds can be found in BindingDB's records for doi:10.1016/0960-894X(95)00078-8 (1995).

SMILES strings stand for the structures. Peptide text beside a SMILES is read from it.

For orientation: IC50 means the midpoint of a concentration-inhibition curve.

Consider `CC(C)[C@H](NC(=O)CNC(=O)CNC(=O)[C@H](CO)NC(=O)[C@H](CCCN=C(N)N)NC(=O)[C@@H](NC(=O)[C@H](CCCN=C(N)N)NC(=O)[C@@H](NC(=O)[C@H](Cc1c[nH]cn1)NC(=O)[C@@H](NC(=O)[C@H](CS)NC(=O)[C@@H](NC(=O)[C@H](C)NC(=O)[C@@H](NC(=O)[C@H](CC(=O)O)NC(=O)[C@H](CS)NC(=O)[C@H](C)N)[C@@H](C)O)[C@@H](C)O)C(C)C)C(C)C)C(C)C)C(=O)N[C@H](C(=O)N[C@@H](CCCCN)C(=O)N[C@@H](CC(N)=O)C(=O)N[C@@H](CC(N)=O)C(=O)N[C@@H](Cc1ccccc1)C(=O)N[C@H](C(=O)N1CCC[C@H]1C(=O)N[C@H](C(=O)N[C@@H](CC(N)=O)C(=O)N[C@H](C(=O)NCC(=O)N[C@@H](CO)C(=O)N[C@@H](CCCCN)C(=O)N[C@@H](C)C(=O)N[C@@H](Cc1ccccc1)C(N)=O)C(C)C)[C@@H](C)O)C(C)C)C(C)C` (H-ACDTATCVHVRVRSGGVVKNNFVPTNVGSKAF-NH2), for which the concentration for half-maximal inhibition (IC50) in experiment [1] turned out to be 14 nM; in experiment [2], 4 nM.

Consider `CC(C)C[C@H](NC(=O)COCCOCCNC(=O)[C@@H](NC(=O)[C@H](CS)NC(=O)[C@@H](NC(=O)[C@H](C)NC(=O)[C@@H](NC(=O)[C@H](CC(=O)O)NC(=O)[C@H](CS)NC(=O)[C@H](C)N)[C@@H](C)O)[C@@H](C)O)C(C)C)C(=O)N[C@@H](CO)C(=O)N[C@@H](CCCNC(=N)N)C(=O)N[C@@H](CO)C(=O)NCC(=O)NCC(=O)N[C@H](C(=O)N[C@H](C(=O)N[C@@H](CCCCN)C(=O)N[C@@H](CC(N)=O)C(=O)N[C@@H](CC(N)=O)C(=O)N[C@@H](Cc1ccccc1)C(=O)N[C@H](C(=O)N1CCC[C@H]1C(=O)N[C@H](C(=O)N[C@@H](CC(N)=O)C(=O)N[C@H](C(=O)NCC(=O)N[C@@H](CO)C(=O)N[C@@H](CCCCN)C(=O)N[C@@H](C)C(=O)N[C@@H](Cc1ccccc1)C(=O)O)C(C)C)[C@@H](C)O)C(C)C)C(C)C)C(C)C`, for which the IC50 stood at 995 nM in experiment [1] and 185 nM in experiment [2].
